Laboratory results as given in patent US6310247A, “7-aryl-6(Z)-heptatrienoic acid retinamides” (Hoffmann-LA Roche Inc., priority 1999, dated 2001).
Read-outs that look alike come from different tables or passages of the source.

Tests used:
ZR-75-1 cells = experiment: Cell growth inhibition: MTT assay, ZR-75-1 (ER+ breast carcinoma); type: cell-based; conditions: Homo sapiens, read-out: % inhibition of cell growth compared to no drug control
Method: ER+ breast carcinoma, human (ZR-75-1) obtained from ATCC (CRL 1500), were grown in Gibco's RPMI 1640 media supplemented with sodium pyruvate, 10% FBS and 13 ng/mL gentamicin. Cells were incubated at 37° C., 4.5% CO2 and 95.5% humidified air.
(§1) 1. Cell growth inhibition: MTT Assay
(§2) The compounds of formula 1 were tested for ability to inhibit cell growth using the standard MTT assay, a tetrazolium-based assay which measures the viability of cells in culture. Cells were harvested upon reaching 70-80% confluency and pelleted. The cells were then resuspended in medium in which FBS was replaced with Hyclone's Charcoal/Dextran stripped FBS, and seeded (2 mL/well) into 6-well plates (Corning) at a density allowing for linear growth over a four day assay period. Compounds of formula 1 (10 mM stock in dimethylsulfoxide (DMSO)) were added 18-24 hours post-seeding. Compound dilutions were prepared in the appropriate growth media and added to the cells for final concentrations of 10, 3.3 and 1 μM in 0.1% DMSO. At 24, 48 and 72 hr. time points, MTT (3-[4,5-dimethylthiazol-2-yl-2,5-diphenyltetrazolium bromide) stock solution (5mg/mL in 1 PBS) was added to the cells plates (625 μL/well) which were then incubated for 2.5 hours. Liquid was aspirated from the wells and 1 mL/well of 95% ethanol was added to solubilize the formazan reaction product. The plates were shaken (Bellco Mini-Orbital Shaker) for 15 minutes. The solubilized formazan was then transferred (50 μls) into a 96-well plate and the optical densities (OD) were measured (Bio-Tek Microplate Reader) at 570 nm and reference wavelength of 660 nm. Percentage of inhibition of cell growth was calculated according to the following formula: [formula]

MDA 231 cells = experiment: Cell growth inhibition: MTT assay, MDA 231 (ER- breast carcinoma); type: cell-based; conditions: Homo sapiens, MDA-MB-231, read-out: % inhibition of cell growth compared to no drug control
Method: ER- breast carcinoma, human (MDA-231) obtained from ATCC (HTB 22), were grown in Eagle's MEM medium supplemented with non-essential amino acids, sodium pyruvate, and Earle's BSS, 10% FBS, and 13 ng/mL gentamicin. Cells were incubated at 37° C., 4.5% CO2 and 95.5% humidified air.
as §1, §2

[1] = test system: NMU-induced mammary tumors; experiment: NMU-induced mammary tumors in Sprague-Dawley rats; type: in vivo, rat; conditions: for Effect on tumors (in words): i.p., tumor size and number; for Number of first tumors with volume relative to day 0: progressed > 100% / Number of first tumors with volume relative to day 0: regressed > 50% / Number of first tumors with volume relative to day 0: static / Number of first tumors: total: 25 mg/kg i.p. q.d.; for No. of first tumors regressing to unpalpable/no. palpable at day 0: 25 mg/kg i.p., 5×/wk for 4 weeks
Source text: Thus, compounds of formula 1 have efficacy against established nitrosomethylurea (NMU)-induced mammary tumors in rats. The induction of invasive mammary-tissue specific tumors in rats by NMU (Gullino et al., 1975) produces primarily estrogen-dependent carcinomas (Arafah et al., 1980) within as little as 4 weeks following a single, low-toxicity dose (McCormick et al., 1981) and results in a high percentage of tumor induction. The properties of the tumors induced in rats by NMU in this experimental model are representative of human mammary carcinoma and are invasive (McCormick et al., 1981).
Materials and Methods, 750 virgin female Sprague-Dawley rats 26 to 32 days of age (Harlan Laboratories) were housed in polycarbonate cages (3 rats/cage) and provided food and water ad libitum. Mammary tumors were induced essentially as previously described (Gullino et al., 1975 and McCormick et al., 1981). At the age of 50+/-3 days, each animal received a single dose (50 mg/kg body weight) of NMU (Sigma, St. Louis, Mo.) in 0.85% sodium chloride acidified to pH 5.0 with acetic acid. The carcinogen was administered with a 26 g needle i.v. via the tail vein in a 0.5 ml volume.
Rats were checked weekly starting 4 weeks after NMU administration for palpable tumors and those bearing at least one mammary tumor, palpable for 11 days or less, were entered into study on day 61 post-NMU administration. Fifteen animals were entered into treatment or control groups. Tumor diameters were measured weekly with calipers along their long and short axes and tumor volume was calculated from the ellipsoid formula, (D×d^2)/2, where D is the long diameter and d is the short diameter. The days on which new palpable tumors arose or on which established tumors disappeared were noted along with anatomical position. Tumors which appeared in the same anatomical location at which a tumor had previously completely regressed were considered to be regrowths of the same tumor. Rats which developed ulcerations of tumors were immediately terminated from studies. All animals entered into groups were weighed daily on weekdays for 6 weeks.
N-(4-hydroxyphenyl)-(2E,4E,6Z)-7-[3,5-bis(trifluoromethyl)phenyl]-3,7-dimethyl-2,4,6-heptatrienamide was prepared in 4% ethanol, 8% PEG400, 7.2% Cremophor RH40 and 80% D5W and administered intraperitoneally in a 2.8 ml volume via a 21 g needle 5 times per week, q.d., for 4 weeks.
For treatment of NMU-induced tumors in rats, solutions of the test compound N-(4-hydroxyphenyl)-(2E,4E,6Z)-7-[3,5-bis(trifluoromethyl)phenyl]-3,7-dimethyl-2,4,6-heptatrienamide were prepared daily in 4% ethanol, 8% PEG400, 7.2% Cremophor RH40 and 80% D5W.

## C/C(=C/C=C/C(C)=C/C(=O)Nc1ccc(O)cc1)c1cc(C(F)(F)F)cc(C(F)(F)F)c1 [N-(4-hydroxyphenyl)-(2E,4E,6Z)-7-[3,5-bis(trifluoromethyl)phenyl]-3,7-dimethyl-2,4,6-heptatrienamide]
ZR-75-1 cells; 24 hours
  inhibition at 1 µM: 1%
  inhibition at 3.3 µM: 14%
  inhibition at 10 µM: 21%
ZR-75-1 cells; 48 hours
  inhibition at 1 µM: 0%
  inhibition at 3.3 µM: 18%
  inhibition at 10 µM: 30%
ZR-75-1 cells; 72 hours
  inhibition at 1 µM: 13%
  inhibition at 3.3 µM: 56%
  inhibition at 10 µM: 64%
MDA 231 cells; 24 hours
  inhibition at 1 µM: 18%
  inhibition at 3.3 µM: 30%
  inhibition at 10 µM: 26%
MDA 231 cells; 48 hours
  inhibition at 1 µM: 39%
  inhibition at 3.3 µM: 35%
  inhibition at 10 µM: 61%
MDA 231 cells; 72 hours
  inhibition at 1 µM: 46%
  inhibition at 3.3 µM: 62%
  inhibition at 10 µM: 71%
[1]; 25 mg/kg/2.8 ml i.p. q.d., 5×/wk for 4 wks
  Rats treated that succumbed to toxicity: 3 of 15
[1]
  Effect on tumors (in words): decrease both tumor size and tumor number
[1]; listed as the tested compound
  Effect on tumors (in words): capable of causing existing tumors to shrink, and, in addition, causes the number of tumors to decrease by eliminating first tumors and preventing additional tumors from arising
[1]; week 1, 5×/wk for 4 wks
  Number of first tumors with volume relative to day 0: progressed > 100%: 4
  Number of first tumors with volume relative to day 0: regressed > 50%: 10
  Number of first tumors with volume relative to day 0: static: 5
  Number of first tumors: total: 19
[1]; week 1, ** p < 0.005 vs vehicle
  No. of first tumors regressing to unpalpable/no. palpable at day 0: 7/20
[1]; week 2, 5×/wk for 4 wks
  Number of first tumors with volume relative to day 0: progressed > 100%: 6
  Number of first tumors with volume relative to day 0: regressed > 50%: 8
  Number of first tumors with volume relative to day 0: static: 5
  Number of first tumors: total: 19
[1]; week 2, * p < 0.05 vs vehicle
  No. of first tumors regressing to unpalpable/no. palpable at day 0: 5/19
[1]; week 3, 5×/wk for 4 wks
  Number of first tumors with volume relative to day 0: progressed > 100%: 6
  Number of first tumors with volume relative to day 0: regressed > 50%: 6
  Number of first tumors with volume relative to day 0: static: 3
  Number of first tumors: total: 19
[1]; week 3
  No. of first tumors regressing to unpalpable/no. palpable at day 0: 3/19
[1]; week 4, * p < 0.05 vs vehicle
  No. of first tumors regressing to unpalpable/no. palpable at day 0: 4/19
[1]; week 5
  No. of first tumors regressing to unpalpable/no. palpable at day 0: 4/18
[1]; week 6, * p < 0.05 vs vehicle
  No. of first tumors regressing to unpalpable/no. palpable at day 0: 5/18
